Experiment: During breakage test combing (weight of broken hairs after 20 combings)
Settings: bleached strands, treated at 15%, combed 20 times, vs bleached untreated reference
Text: All samples (hair strands) have been combed for 20 times and broken hairs have been weighted (with 0.0001 g accuracy, METTLER TOLEDO EXCELLENCE analytical scale).

With `NCCCOCCOCCOCCCN.O=C(O)C=CC(=O)O.O=C(O)C=CC(=O)O` [bis-aminopropyl diglycol dimaleate] the “reduction in broken hairs” value was 50.00%.

— patent publication US20220331217A1, “Hair restructuring association comprising a quaternary ammonium salt and a sulpho-derivative of vegetable fatty acids” (Greengredients S.r.l., priority 2021, published 2022)
